From BindingDB's records for doi:10.1021/jm00069a017 (University of Minnesota, 1993) come the findings set out here.

Test [1] can be described thus: Selective binding affinity against Opioid receptor delta 2, using [3H]DSLET as radioligand.
A short description of test [2]: Selective binding affinity against Opioid receptor delta 1, using [3H]DPDPE as radioligand.

One may read the Ki as a dissociation constant, usually derived from enzyme kinetics or from competition with a known ligand. A low value points to higher affinity. As for `CN1CC[C@]23c4c5ccc(O)c4O[C@H]2C(=O)C2(Cc4ccccc4C2)C[C@@]3(O)[C@H]1C5` [Spiroindanyloxymorphone], the Ki in test [1] was found to be 3.3 nM; in test [2], 1.4 nM.
